Common to all, as to test: Pre-emergent herbicidal activity (Table A)
Holding throughout (assay type): in vivo

The subject of one assay is Velvetleaf. The note with it: Abutilon theophrasti, pre-emergence, Vele, 11.2 kg/ha, 10-14 days, read-out: herbicidal rating (% inhibition). The procedure, abridged: (§1)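 Percent inhibition per species, scored on a rating scale, after pre-emergent soil incorporation: test compound in acetone or water carrier mixed into cover soil, layered over seeded topsoil or vegetative propagules.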

The test system of another assay is Common Lambsquarters. The note with it: Chenopodium album, pre-emergence, Colq, 11.2 kg/ha, 10-14 days, read-out: herbicidal rating (% inhibition). The method, boiled down: as §1
Another assay relates to Downy Brome. As to conditions: Bromus tectorum, pre-emergence, Dobr, 11.2 kg/ha, 10-14 days, read-out: herbicidal rating (% inhibition). The method, boiled down:
as §1

A further assay deals with Yellow Nutsedge. The note with it: Cyperus, pre-emergence, Yens, 11.2 kg/ha, 10-14 days, read-out: herbicidal rating (% inhibition). The method, boiled down: as §1
A further assay deals with Quackgrass. The note with it: pre-emergence, Rhqg, 11.2 kg/ha, 10-14 days, read-out: herbicidal rating (% inhibition). The procedure, abridged:
as §1

In the next assay the test system is Canada thistle. The note with it: Cirsium arvense, pre-emergence, Cath, 11.2 kg/ha, 10-14 days, read-out: herbicidal rating (% inhibition). The procedure, abridged: as §1
The subject of another assay is Rhizome Johnsongrass. As to conditions: Sorghum halepense, pre-emergence, Rhjg, 11.2 kg/ha, 10-14 days, read-out: herbicidal rating (% inhibition). The procedure, abridged: as §1
A further assay relates to Barnyardgrass. The note with it: Echinochloa crus-galli, pre-emergence, Bygr, 11.2 kg/ha, 10-14 days, read-out: herbicidal rating (% inhibition). The procedure, abridged:
as §1

The test system of another assay is Pennsylvania Smartweed. The note with it: pre-emergence, Pesw, 11.2 kg/ha, 10-14 days, read-out: herbicidal rating (% inhibition). The method, boiled down: as §1
The subject of the next assay is Cocklebur. As to conditions: Xanthium strumarium, pre-emergence, Cobu, 11.2 kg/ha, 10-14 days, read-out: herbicidal rating (% inhibition). The method, boiled down: as §1
Another assay has as its system Morningglory. As to conditions: Ipomoea, pre-emergence, Mogl, 11.2 kg/ha, 10-14 days, read-out: herbicidal rating (% inhibition). The procedure, abridged:
as §1

Consider `CCOC(=O)c1c(OC)nc(C(F)(F)F)c(C(=O)OC)c1CC(C)C` [Compound 4, 3,5-pyridinedicarboxylic acid, 2-methoxy-4-(2-methylpropyl)-6-(trifluoromethyl)-, 3-ethyl 5-methyl ester], for which the inhibition at 11200 g/ha in the assay on Velvetleaf was in the range of 75 to 100%; in the assay on Common Lambsquarters it was 75 to 100%; with Downy Brome it was 75 to 100%; in the assay on Yellow Nutsedge it was 25 to 49%; in the assay on Quackgrass, 75 to 100%; with Canada thistle it was 75 to 100%. The inhibition at 11200 g/ha in the assay with Rhizome Johnsongrass was 75 to 100%; in the assay on Barnyardgrass, 75 to 100%; with Pennsylvania Smartweed it was 75 to 100%; in the assay with Cocklebur, 0 to 24%; in the assay on Morningglory it was 75 to 100%.
Consider `COC(=O)c1c(OC)nc(C(F)(F)F)c(C2=NC(C)CS2)c1CC(C)C` (stereo not shown) [Compound 74, 3-pyridinecarboxylic acid, 5-(4,5-dihydro-4-methy1-2-thiazolyl)-2-methoxy-4-(2-methylpropyl)-6-(trifluoromethyl)-, methyl ester], for which the inhibition at 11200 g/ha with Velvetleaf lay within 75 to 100%; with Common Lambsquarters, 75 to 100%; with Downy Brome, 75 to 100%; in the assay on Yellow Nutsedge, 25 to 49%; with Quackgrass, 75 to 100%; in the assay with Canada thistle, 75 to 100%. The inhibition at 11200 g/ha in the assay on Rhizome Johnsongrass, in the assay on Barnyardgrass, with Pennsylvania Smartweed, in the assay on Cocklebur and in the assay on Morningglory was 75 to 100% each time.
`COC(=O)c1c(C(F)(F)F)[nH]c(=O)c(C#N)c1CC(C)C` [Compound 22, 3-pyridinecarboxylic acid, 5-cyano-1,6-dihydro-4-(2-methylpropyl)-6-oxo-2-(trifluoromethyl)-, methyl ester]: the inhibition at 11200 g/ha with Velvetleaf, in the assay with Common Lambsquarters, with Downy Brome, with Yellow Nutsedge, in the assay with Quackgrass and in the assay on Canada thistle was 0 to 24% each time. Further, the inhibition at 11200 g/ha with Rhizome Johnsongrass, in the assay on Barnyardgrass, with Pennsylvania Smartweed, in the assay with Cocklebur and with Morningglory was 0 to 24% each time.
For the molecule `CN=C(SC)c1c(C(F)(F)F)nc(OC)c(C(=O)OC)c1CC(C)C` [Compound 41, 3-pyridinecarboxylic acid, 2-methoxy-5-[(methylimino)(methylthio)methyl]-4-(2-methylpropyl)-6-(trifluoromethyl)-, methyl ester], the inhibition at 11200 g/ha with Velvetleaf was in the range of 75 to 100%; in the assay on Common Lambsquarters, 75 to 100%; in the assay on Downy Brome, 75 to 100%; in the assay with Yellow Nutsedge, 0 to 24%; in the assay on Quackgrass, 75 to 100%; with Canada thistle it was 75 to 100%. Further, the inhibition at 11200 g/ha lay within 0 to 24% in the assay on Rhizome Johnsongrass; 75 to 100% in the assay on Barnyardgrass; 75 to 100% in the assay with Pennsylvania Smartweed; 25 to 49% in the assay with Cocklebur; 75 to 100% with Morningglory.
On to `COC(=O)c1c(OC)nc(C(F)(F)F)c(N=CN(C)C)c1CC(C)C` [Compound 62, 3-pyridinecarboxylic acid, 5-[[(dimethylamino)methylene]amino]-2-methoxy-4-(2-methylpropyl)-6-(trifluoromethyl)-, methyl ester], for which the inhibition at 11200 g/ha with Velvetleaf was 75 to 100%; in the assay with Common Lambsquarters, 75 to 100%; with Downy Brome, 75 to 100%; with Yellow Nutsedge, 25 to 49%; in the assay on Quackgrass, 75 to 100%; in the assay on Canada thistle, 75 to 100%. For the same molecule, the inhibition at 11200 g/ha with Rhizome Johnsongrass lay in the range of 50 to 74%; in the assay on Barnyardgrass, 75 to 100%; in the assay on Pennsylvania Smartweed, 75 to 100%; with Cocklebur, 25 to 49%; in the assay with Morningglory, 75 to 100%.
`CCOC(=O)c1c(C(F)(F)C(F)(F)F)nc(OC)c(C(=O)OC)c1CC(C)C` [Compound 11, 3,5-pyridinedicarboxylic acid, 2-methoxy-4-(2-methylpropyl)-6-(pentafluoroethyl)-, 5-ethyl 3-methyl ester]: the inhibition at 11200 g/ha in the assay on Velvetleaf was in the range of 25 to 49%; in the assay on Common Lambsquarters, 75 to 100%; in the assay on Downy Brome, 75 to 100%; in the assay with Yellow Nutsedge, 75 to 100%; with Quackgrass it was 75 to 100%; in the assay on Canada thistle, 25 to 49%. Further, the inhibition at 11200 g/ha lay in the range of 0 to 24% with Rhizome Johnsongrass; 75 to 100% with Barnyardgrass; 75 to 100% with Pennsylvania Smartweed; 0 to 24% with Cocklebur; 50 to 74% in the assay with Morningglory.
With `CNC(=O)c1c(OC)nc(C(F)(F)F)c(C(=O)OC)c1CC(C)C` [Compound 21, 3-pyridinecarboxylic acid, 6-methoxy-5-[(methylamino)carbonyl]-4-(2-methylpropyl)-2-(trifluoromethyl)-, methyl ester], the inhibition at 11200 g/ha fell in the range of 0 to 24% with Velvetleaf; 75 to 100% in the assay on Common Lambsquarters; 75 to 100% with Downy Brome; 0 to 24% in the assay with Yellow Nutsedge; 75 to 100% in the assay on Quackgrass; 0 to 24% in the assay with Canada thistle. The inhibition at 11200 g/ha in the assay with Rhizome Johnsongrass fell in the range of 0 to 24%; with Barnyardgrass, 75 to 100%; in the assay on Pennsylvania Smartweed, 0 to 24%; in the assay with Cocklebur, 0 to 24%; in the assay on Morningglory it was 0 to 24%.
As to `CCOC=Nc1c(C(F)(F)F)nc(OC)c(C(=O)OC)c1CC(C)C` [Compound 61, 3-pyridinecarboxylic acid, 5-[(ethoxymethylene)amino]-2-methoxy-4-(2-methylpropyl)-6-(trifluoromethyl)-, methyl ester], the inhibition at 11200 g/ha in the assay on Velvetleaf is 75 to 100%; in the assay on Common Lambsquarters, 75 to 100%; with Downy Brome, 75 to 100%; in the assay on Yellow Nutsedge it was 0 to 24%; with Quackgrass, 75 to 100%; in the assay on Canada thistle, 50 to 74%. For the same molecule, the inhibition at 11200 g/ha lay in the range of 75 to 100% in the assay on Rhizome Johnsongrass; 75 to 100% in the assay on Barnyardgrass; 75 to 100% with Pennsylvania Smartweed; 25 to 49% with Cocklebur; 75 to 100% in the assay on Morningglory.
For `COC(=O)c1c(C(F)(F)F)nc(OC)c(C(=O)SC)c1CC(C)C` [Compound 33, 3-pyridinecarboxylic acid, 6-methoxy-4-(2-methylpropyl)-5-[(methylthio)carbonyl]-2-(trifluoromethyl)-, methyl ester], the inhibition at 11200 g/ha fell in the range of 75 to 100% in the assay on Velvetleaf; 75 to 100% in the assay with Common Lambsquarters; 75 to 100% in the assay with Downy Brome; 50 to 74% in the assay with Yellow Nutsedge; 75 to 100% with Quackgrass; 50 to 74% in the assay with Canada thistle. Further, the inhibition at 11200 g/ha fell in the range of 75 to 100% in the assay on Rhizome Johnsongrass; 75 to 100% in the assay with Barnyardgrass; 75 to 100% in the assay on Pennsylvania Smartweed; 25 to 49% in the assay on Cocklebur; 75 to 100% in the assay on Morningglory.
`COC=Nc1c(OC)nc(C(F)(F)F)c(C(=O)OC)c1CC(C)C` [Compound 56, 3-pyridinecarboxylic acid, 6-methoxy-5-[(methoxymethylene)amino]-4-(2-methylpropyl)-2-(trifluoromethyl)-, methyl ester]: the inhibition at 11200 g/ha lay in the range of 0 to 24% in the assay on Velvetleaf; 75 to 100% in the assay on Common Lambsquarters; 75 to 100% with Downy Brome; 0 to 24% in the assay with Yellow Nutsedge; 0 to 24% in the assay on Quackgrass; 0 to 24% in the assay with Canada thistle. Besides, the inhibition at 11200 g/ha with Rhizome Johnsongrass was in the range of 0 to 24%; in the assay on Barnyardgrass, 75 to 100%; in the assay with Pennsylvania Smartweed it was 0 to 24%; in the assay on Cocklebur, 0 to 24%; in the assay on Morningglory, 0 to 24%.
`COC(=O)c1c(OC)nc(C(F)(F)F)c(C(=O)OC)c1CSC` [Compound 89, 3,5-pyridinedicarboxylic acid, 2-methoxy-4-[(methylthio)methyl]-6-(trifluoromethyl)-, dimethyl ester]: the inhibition at 11200 g/ha was in the range of 75 to 100% with Velvetleaf; 75 to 100% with Common Lambsquarters; 25 to 49% in the assay on Downy Brome; 0 to 24% with Yellow Nutsedge; 25 to 49% with Quackgrass; 75 to 100% in the assay on Canada thistle. The inhibition at 11200 g/ha with Rhizome Johnsongrass lay within 0 to 24%; in the assay on Barnyardgrass, 75 to 100%; in the assay with Pennsylvania Smartweed, 75 to 100%; in the assay with Cocklebur it was 25 to 49%; with Morningglory it was 75 to 100%.

These data come from patent publication US5391540A, “Substituted pyridine compounds” (Rohm and Haas Company, priority 1993, dated 1995).
